In patent US9718825B2, “N-(4-(azaindazol-6-yl)-phenyl)-sulfonamides and their use as pharmaceuticals” (priority 2013, dated 2017):
Read-outs that look alike come from different tables or passages of the source.

Key:
[1] = target: recombinant human SGK-1 enzyme (Homo sapiens, UniProt O00141); assay: Enzymatic activity assay: SGK-1 substrate peptide phosphorylation (Caliper lab-chip mobility shift); type: biochemical
[2] = test system: SGK-1 dependent phosphorylation of GSK3beta in U2OS cells; assay: SGK-1 dependent phosphorylation of GSK3beta in U2OS cells overexpressing recombinant SGK-1 and GSK3beta; type: cell-based, human; conditions: U2OS cells, 6 h incubation, ratio of phosphorylated GSK3beta to total GSK3beta, read-out: IC50 values for inhibition of SGK-1 dependent phosphorylation of GSK3beta in U2OS cells
[3] = test system: SGK-1 dependent activation of ENaC-currents in A6 cell monolayers; assay: Functional electrophysiological assay (Ussing chamber): SGK-1 dependent activation of ENaC-currents in A6 cell monolayers; type: cell-based, Xenopus laevis; conditions: hypoosmotic shock 45 min, amiloride-sensitive ΔI'sc, read-out: IC50 values for inhibition of SGK-1 dependent activation of ENaC-currents in A6 cell monolayers
Method: C) Functional Electrophysiological Assay for Determination of SGK-1 Dependent Activation of ENaC-Currents in A6 Cell Monolayers
Cells were grown in cell culture flasks (Nunc) at 28° C. in a humidified atmosphere with 4% CO2. The culture medium contained a 7:3 mixture of Leibovitz's L-15 (Sigma-Aldrich)/Coon's (Sigma-Aldrich) media supplemented with 10% fetal bovine serum (PAA), 20% sterile water, 25 mM NaHCO3 (Sigma-Aldrich), 100 U/ml penicillin (PAA) and 100 μg/ml streptomycin (PAA). The osmolality of the medium was 270 mOsml/kg H2O). Cells were detached with accutase (PAA) and seeded for electrophysiological measurements into transwell filter inserts (polyester 0.4 μm pore size, Corning) at a density of 0.4×10^6 cells/filter. Cells were cultivated for 7-10 days, and confluent A6 cell monolayers were identified by repetitive resistance measurements in cell culture medium using an EVOM^2 ohmmeter (World Precision Instruments). Monolayers with a resistance of >10 kOhm were considered confluent. Filters with confluent A6 cells were transferred into a continuously perfused Ussing-chamber, and electrophysiological parameters were measured under open circuit conditions using a transepithelial clamp amplifier (EP Design). Short circuit current (I′sc) was calculated by Ohm's law. […] The pH was adjusted to 8.2. All measurements were done at room temperature.
To evaluate the effects of SGK inhibitors on ENaC-mediated transepithelial currents, A6 monolayers were first equilibrated for 5 min with isoosmotic Ringer solution from both the luminal and basolateral side of the cell layer. Amiloride was applied to the luminal site to establish the basal ENaC-dependent current (I′scbasal). Cell layers were then perfused from the basolateral side for 10 min with compounds in isotonic buffer or control isotonic buffer. SGK signaling leading to increased ENaC activity and subsequent increase in I′sc was stimulated by application of hypoosmotic Ringer-solution for 45 min to both sides of the A6 cell layer. ENaC-dependent I′sc after the hypoosmotic shock (I′schypo) was determined by application of amiloride at the end of the experiment. Total changes of amiloride-sensitive Isc was calculated as ΔI′sc=I′schypo−I′scbasal. […] The inhibition of ΔI′sc by the test compounds was determined relative to the ΔI′sc measured with control monolayers which were not treated with the test compound.

[4] = test system: collagen type X (Col10a1) expression in mouse chondrogenic ATDC5 cells; assay: Chondrocyte hypertrophic differentiation in mouse chondrogenic ATDC5 cells (collagen type X expression); type: cell-based; conditions: Col10a1 expression by quantitative real-time PCR after two weeks of cell culture, read-out: IC50 values for the inhibition of collagen type X expression in mouse chondrogenic ATDC5 cells
From the text: D) Determination of the effect on chondrocyte hypertrophic differentiation in mouse chondrogenic ATDC5 cells
The ATDC5 cell assay was used as in vitro model to determine the effects of the compounds of the invention on chondrocyte hypertrophic differentiation by monitoring the expression levels of collagen type X (Col10a1) as specific marker of chondrocyte hypertrophy.
Background: ATDC5 cells are a clonal mouse embryonic cell line derived from multipotent AT805 teratocarcinoma cells (Atsumi, T. et al., A chondrogenic cell line derived from a differentiating culture of AT805 teratocarcinoma cells, Cell Differ. Dev. 1990, 30, 109-116). The cells can undergo insulin-dependent chondrogenic cell differentiation entailing distinct differentiation stages starting from an undifferentiated, subconfluent stage, a condensation stage, a cartilage nodule formation stage and a calcification stage within 45 days of in vitro culture. Chondrogenic differentiation can be shown by measuring the expression of the cartilage main collagen (Col2a1) and aggrecan (AGC1) and glycosaminoglycan-staining with Alcian Blue within two weeks after insulin-triggered differentiation, and hypertrophic differentiation can be monitored by the expression of collagen type X (Col10a1), a specific marker of chondrocyte hypertrophy within 21 days of in vitro culture. (Shukunami, C. et al., Chondrogenic Differentiation of Clonal Mouse Embryonic Cell Lne ATDC5 In Vitro: Differentiation-dependent Gene Expression of Parathyroid Hormone (PTH)/PTH-related Peptide Receptor, J. Cell Biol. 1996, 133, 457-468). Growth factor BMP-2 is known to stimulate cell differentiation and can stimulate early and late-phase ATDC5 differentiation (Shukunami, C. et al., Sequential Progression of the Differentiation Program by Bone Morphogenetic Protein-2 in Chondrogenic Cell Line ATDC5, Exp. Cell Res. 1998, 241, 1-11). Thyroid hormone triiodothyronine (T3) promotes hypertrophic differentiation of growth plate chondrocytes (Robson, H. et al., Thyroid Hormone Acts Directly on Growth Plate Chondrocytes to Promote Hypertrophic Differentiation and Inhibit Clonal Expansion and Cell Proliferation, Endocrinology 2000, 141, 3887-3897). Addition of BMP2 and T3 can accelerate ATDC5 hypertrophic differentiation leading to the strong induction Col10a1 expression between 10-14 days. SGK-inhibitors were added to differentiating ATDC5 cells for 14 days and Col10a1 gene expression was quantified to determine effects on chondrocyte hypertrophic differentiation.
Cell assay description: ATDC5 cells were maintained in 300 cm^2 tissue culture flasks in DMEM/Ham's F12+5% FCS supplemented with 10 μg/ml human transferrin, 30 nM sodium selenite, 50 μg/ml kanamycin and grown at 37° C. in 5% CO2 in 95% air. To initiate cell differentiation, 9.9×10^4 cells were plated in 24 well plates and grown for 2 days. Medium was exchanged with DMEM/Ham's F12+5% FCS supplemented with 10 μg/ml human transferrin, 30 nM sodium selenite, 50 μg/ml ascorbic acid and 1 μg/ml BMP2. The assay was run in triplicates, compounds were added in […], and medium changed every 2-3 days including supplementation of compound. At day 7 after initiation of cell differentiation, 1 μM T3 was used as additional supplement in the cell culture.
After two weeks of cell culture, RNA was isolated and converted to cDNA for determination of gene expression by quantitative real-time PCR. Cells were lysed in 600 μl of RLT-buffer (Qiagen) and total RNA was isolated using the RNA-easy Mini RNA isolation Kit (Qiagen) which was run on a Qiacube system (Qiagen) according to the supplier's instructions. RNA was isolated in 30 μl of pure water and the RNA content measured by UV-spectroscopy (Nanodrop, Peqlab). For cDNA synthesis 50 ng total RNA was reverse transcribed using the High Capacity cDNA Reverse Transcription Kit (Applied Biosystems, Product Number 4368813) according to the manufacturer's instructions. […]

[5] = target: recombinant human SGK-1 enzyme; assay: Enzymatic activity assay: SGK-1 substrate peptide phosphorylation (Caliper lab-chip mobility shift); type: biochemical; conditions: peptide substrate 1 μM, ATP 10 μM, 60 min at 37° C., read-out: IC50 values for inhibition of SGK-1 enzymatic activity
[6] = peptide substrate 1 μM, ATP 10 μM, 60 min at 37° C., read-out: IC50 values for inhibition of SGK-1 enzymatic activity
[7] = read-out: IC50 values for inhibition of SGK-1 enzymatic activity, peptide substrate 1 μM, ATP 10 μM, 60 min at 37° C.
[8] = Mus musculus, Chondrocyte, 336 h

Sequence of recombinant human SGK-1 enzyme (Homo sapiens, UniProt O00141) (O00141 whole entry, looked up): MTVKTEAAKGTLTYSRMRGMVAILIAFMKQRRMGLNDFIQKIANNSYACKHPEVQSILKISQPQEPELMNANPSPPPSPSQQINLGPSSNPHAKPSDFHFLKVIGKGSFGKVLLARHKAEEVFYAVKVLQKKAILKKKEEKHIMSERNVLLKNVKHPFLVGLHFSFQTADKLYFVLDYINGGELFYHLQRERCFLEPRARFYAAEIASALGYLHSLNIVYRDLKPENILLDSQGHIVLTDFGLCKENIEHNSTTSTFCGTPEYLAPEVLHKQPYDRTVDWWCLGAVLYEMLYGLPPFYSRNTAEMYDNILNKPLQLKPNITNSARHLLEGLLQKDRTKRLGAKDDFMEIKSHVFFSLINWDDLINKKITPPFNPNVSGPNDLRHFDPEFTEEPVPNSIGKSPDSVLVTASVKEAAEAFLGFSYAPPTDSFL

SMILES	IC50 [1, 6] [nM]	IC50 [2] [nM]	IC50 [3] [nM]	IC50 [4] [nM]	IC50 [5] [nM]	IC50 [1, 7] [nM]	IC50 ([2]; Homo sapiens) [nM]	IC50 ([3]; Xenopus laevis, INA-6, 0.75 h) [nM]	IC50 [4, 8] [nM]
Cc1ccc(F)c(S(=O)(=O)Nc2ccc(-c3nc(OCC(C)C)c4c(N)n[nH]c4n3)cc2)c1 [Example 317]	11	210	10000	–	–	–	–	–	–
Nc1n[nH]c2cc(-c3ccc(NS(=O)(=O)c4cc(Cl)c(F)cc4F)cc3)ncc12 [Example 555]	< 1.5	3800	600	–	–	–	–	–	–
CC(C)COc1nc(-c2ccc(NS(=O)(=O)c3cc(Cl)ccc3Cl)cc2)nc2[nH]nc(N)c12 [Example 310]	130	220	10000	–	–	–	–	–	–
COc1ccc(Cl)c(S(=O)(=O)Nc2ccc(-c3nc(C)c4c(N)n[nH]c4n3)cc2)c1 [Example 467]	< 1.5	150	160	53	–	–	–	–	–
COc1ccc(C#N)c(S(=O)(=O)Nc2ccc(-c3nc(C4CC4)c4c(N)n[nH]c4n3)cc2)c1 [Example 520]	< 1.5	61	500	30	–	–	–	–	–
Cc1n[nH]c2nc(-c3ccc(NS(=O)(=O)c4cc(Cl)ccc4F)cc3)nc(OC3CCN(C(C)C)CC3)c12 [Example 346]	3.2	–	2000	66	–	–	–	–	–
O=S(=O)(Nc1ccc(-c2cc3[nH]ncc3cn2)cc1)c1cc(Cl)ccc1Cl [Example 563, 2,5-Dichloro-N-[4-(1H-pyrazolo[4,3-c]pyridin-6-yl)phenyl]benzenesulfonamide]	–	–	–	–	52	–	–	–	–
Nc1n[nH]c2cc(-c3ccc(NS(=O)(=O)c4cc(Cl)ccc4Cl)cc3)ncc12 [Example 556]	1.7	1700	2000	–	–	–	–	–	–
N#Cc1ccc(Cl)cc1S(=O)(=O)Nc1ccc(-c2nc(OC3CCC(O)CC3)c3cn[nH]c3n2)cc1 (stereo not shown) [Example 83]	2	2100	1900	130	–	–	–	–	–
O=S(=O)(Nc1ccc(-c2nc(OC3CCC(O)CC3)c3cn[nH]c3n2)cc1)c1cc(Cl)ccc1Cl (stereo not shown) [Example 61]	< 1.2	430	1400	36	–	–	–	–	–
COc1ccc(Cl)c(S(=O)(=O)Nc2ccc(-c3ncc4c(N)n[nH]c4n3)cc2)c1 [Example 461]	< 1.5	260	180	–	–	–	–	–	–
Nc1n[nH]c2cc(-c3ccc(NS(=O)(=O)c4cc(Cl)c(F)cc4F)cc3)nc(O)c12 [Example 549, N-[4-(3-Amino-4-hydroxy-1H-pyrazolo[4,3-c]pyridin-6-yl)phenyl]-5-chloro-2,4-difluoro-benzenesulfonamide]	–	–	–	–	7.7	–	–	–	–
Cc1ccc(C#N)c(S(=O)(=O)Nc2ccc(-c3nc(C)c4c(N)n[nH]c4n3)cc2)c1 [Example 468]	< 1.5	230	610	870	–	–	–	–	–
Cc1ccc(C#N)c(S(=O)(=O)Nc2ccc(-c3nc(OC4CCC(O)CC4)c4cn[nH]c4n3)cc2)c1 (stereo not shown) [Example 4, 2-Cyano-N-{4-[4-(4-hydroxy-cyclohexyloxy)-1H-pyrazolo[3,4-d]pyrimidin-6-yl]-phenyl}-5-methyl-benzenesulfonamide]	–	–	–	–	–	< 1.5	110	3200	9
Nc1n[nH]c2nc(-c3ccc(NS(=O)(=O)c4cc(F)ccc4F)cc3)ncc12 [Example 519]	190	260	1100	260	–	–	–	–	–
Cc1nc(-c2ccc(NS(=O)(=O)c3cc(Cl)c(F)cc3F)cc2)nc2[nH]nc(N)c12 [Example 447, N-[4-(3-Amino-4-methyl-1H-pyrazolo[3,4-d]pyrimidin-6-yl)-phenyl]-5-chloro-2,4-difluoro-benzenesulfonamide]	–	–	–	–	–	< 1.5	340	60	330
Cc1n[nH]c2nc(-c3ccc(NS(=O)(=O)c4cc(F)ccc4F)cc3)nc(OC3CCN(C(C)C)CC3)c12 [Example 349]	8.4	–	3200	380	–	–	–	–	–
N#Cc1ccc(Cl)cc1S(=O)(=O)Nc1ccc(-c2ncc3c(N)n[nH]c3n2)cc1 [Example 446, N-[4-(3-Amino-1H-pyrazolo[3,4-d]pyrimidin-6-yl)-phenyl]-5-chloro-2-cyano-benzenesulfonamide]	–	–	–	–	–	–	3700	190	550
O=S(=O)(Nc1ccc(-c2nc(OC3CCC(O)CC3)c3cn[nH]c3n2)cc1)c1cc(Cl)ccc1F (stereo not shown) [Example 3, 5-Chloro-2-fluoro-N-{4-[4-(4-hydroxy-cyclohexyloxy)-1H-pyrazolo[3,4-d]pyrimidin-6-yl]-phenyl}-benzenesulfonamide]	–	–	–	–	–	–	–	3400	52
Cc1nc(-c2ccc(NS(=O)(=O)c3cc(Cl)ccc3C#N)cc2)nc2[nH]ncc12 [Example 492]	3.8	4200	1100	660	–	–	–	–	–
